In patent publication US11357745B2, “Methods and materials for treating cytokine release syndrome” (Mayo Foundation for Medical Education and Research, priority 2018, dated 2022):

Experiments:
[1] = tested on: human myeloma cell lines (HMCLs); experiment: MTT assay across 10 human myeloma cell lines, compared with receptor surface expression by flow cytometry; format: cell-based
From the text: Surface expression of IL-6Rα, IL-6ST and CD44 was quantified using IL-6Rα-PE (clone UV4, Biolegend), IL-6ST-APC (2E1B02, Biolegend) and CD44-BV711 (IM7, Biolegend), and compared to isotype or unstained control.

U266 [2] = experiment: BrdU cell cycle assay, U266; format: cell-based, human; settings: U266, metformin 10 mM, 72 hours, from 35% without metformin
Experimental: (§1) Data is presented as heat map intensity corresponding to the level of expression. (B) HMCLs were treated with different doses of metformin for 72 hours and relative proliferation compared to vehicle control was calculated using MTT assay. Data is presented as IC50 for different cell lines and IC50 was calculated using Compusyn software (n=6). (C) & (D) HMCLs MM1S, RPMI, and U266 were treated with vehicle control (DMSO) or metformin 10 mM for 72 hours. (C) For apoptosis assay, cells were suspended in Annexin V buffer and stained with Annexin V for 30 minutes. Propidium iodide was added 10 minutes prior to data acquisition by flow cytometry. (D) For cell cycle assay, BrdU was added and incubated for 4 hours. […] The data were acquired on BD Fortessa and analyzed with flowjo V10.
(§2) Cell surface expression of IL-6Rα, IL-6ST, and CD44 was quantified using the fluorescently labeled antibodies anti-IL6R-PE (UV4, Biolegend), anti-IL6ST-APC (2E1B02, Biolegend) and anti-CD44-BV711 (IM7, Biolegend), and compared with isotype control. BrdU labeling assay (Phase-Flow™, Biolegend) was performed according to the manufacturer's protocol to quantify cell cycle. […] For apoptosis assay, the cells were treated with metformin for 72 hours and quantified with Annexin V (Biolegend). […] The data were analyzed using flowJo vs10.4.2 (Flowjo LLC, USA). […]

U266 [3] = experiment: Annexin V / propidium iodide apoptosis assay, U266; format: cell-based, human; settings: U266, metformin 10 mM, 72 hours, Annexin V/PI
Experimental: as §1, §2

RPMI IL-6Rα knock-downs = experiment: MTT assay in RPMI IL-6Rα knock-down cells; format: cell-based, human; settings: n=6
Experimental: (§3) IC50 was calculated using Compusyn software.
pGFP-C-shLenti vectors (4 shRNA targeting IL-6Rα and 1 scramble control) were purchased from Origene. Lentiviral particles were generated in HEK293T cells using pMD2.G (Addgene) and psPAX2 (Addgene). HMCLs were transduced with lentiviral vector particles in the presence of Polybrene (Millipore). Stable cell lines were generated after selecting for GFP positive cells with flow sorting and treatment with puromycin. Decreased expression of IL-6Rα compared to scrambled control was confirmed with qPCR and flow cytometer.

IL-6Rα mRNA = experiment: IL-6Rα mRNA, qPCR TaqMan assay; format: cell-based, human; settings: RPMI and ANBL6, metformin 10 mM, 72 hours
Experimental: (§4) RPMI, ANBL6, U266, MM1S, and JJN3 were treated with metformin 10 mM for 72 hours and median fluorescence intensity for cell surface expression of (A) IL-6Rα, (B) IL-6-Rβ and (C) CD44 was quantified using flow cytometry. Vehicle (open bar) and metformin 10 mM (shaded bar), n=3. (D) RPMI and ANBL6 cells were cultured either in the presence of vehicle control or metformin 10 mM for 72 hours. Soluble IL-6Rα was quantified in media supernatant using ELISA kit. Vehicle (open bar) and metformin 10 mM (shaded bar), n=6. […] (E) RPMI and ANBL6 cells were cultured either in presence of vehicle control or metformin 10 mM for 72 hours. mRNA expression of IL-6Rα was quantified using qPCR TaqMan assay. Vehicle (open bar) and metformin 10 mM (shaded bar), n=6.

[4] = tested on: JJN3 engineered to over-express IL-6Rα; experiment: MTT assay in JJN3 cells over-expressing IL-6Rα; format: cell-based, human; settings: n=6
Experimental: Ten different HMCLs were treated with metformin (0, 1 mM, 5 mM, 10 mM, 20 mM, 40 mM, and 80 mM) for 72 hours. The total numbers of live cells (metabolically active) were estimated using MTT assay. Relative proliferation was calculated by normalizing absorbance value with that obtained for vehicle control. IC50 was calculated using Compusyn software. […] (D) JJN3 IL-6Rα over-expressing cells were created using IL-6R cDNA expressing vector. Increased expression of IL-6Rα was confirmed by flow cytometry. (E) The sensitivity to metformin (IC50) was calculated using the MTT assay for cells transduced with the shRNA scrambled control or IL-6Rα KDs (n=6). […] (F) Metformin IC50 was calculated using MTT assay for JJN3 control and IL-6Rα over-expresser (n=6).
(3-(4,5-Dimethylthiazol-2-5-Diphenyltetrazolium Bromide (MTT) (ThermoFisher Scientific, MA, USA) was dissolved in PBS to make 12 mM stock solution. Cells were seeded at 10,000 cells in 50 μL complete medium. Drugs, cytokines and antibodies were added at indicated doses in 50 μL complete medium. HMCLs were incubated for 72 hours while primary myeloma cells were incubated for 48 hours in presence of vehicle control, metformin (1 mM, 5 mM, 10 mM, 20 mM, 40 mM and 80 mM). MTT (10 μL) was added to each well and incubated for an additional 2 hours. Lysis buffer (100 μL) was added to each well and absorbance was read at 570 nm. […]

IL-6Rα [5] = experiment: Flow cytometry, IL-6Rα on Hep3B hepatocytes; format: cell-based, human; settings: metformin 10 mM, 72 hours
Experimental: Human hepatocellular carcinoma cell line Hep3B was purchased from ATCC. Cells were maintained in DMEM supplemented with 10% FBS and 100 U/mL penicillin and 100 μg/mL streptomycin.
(§5) Surface expression of IL-6Rα, IL-6ST and CD44 was quantified using IL-6Rα-PE (clone UV4, Biolegend), IL-6ST-APC (2E1B02, Biolegend) and CD44-BV711 (IM7, Biolegend), and compared to isotype or unstained control. BrdU labelling assay (Phase-Flow™, Biolegend) was performed according to the manufacturer's protocol to quantify cell cycle fractions. After treatment cells were labelled with BrdU for 2 hours. For apoptosis assay, cells were treated with metformin for 72 hours and quantified with Annexin V (Biolegend). All assays were quantified on LSR Fortessa. Data were analyzed using flowJo vs10.4.2 (Flowjo LLC, USA).

soluble IL-6Rα = settings: RPMI and ANBL6, metformin 10 mM, 72 hours, ELISA
Experimental: as §4

primary myeloma cells = experiment: MTT assay in primary myeloma cells (CD138+ enriched); settings: metformin 10 mM, 48 hours
Experimental: (A) Bone marrow aspirates were enriched for multiple myeloma cells by with magnetic associated cell sorting using CD138^+ (a marker for myeloma cells). Cells were treated with metformin 10 mM or vehicle control. After 48 hours of culture, the MTT assay was performed to determine the percentage of live cells. Data is presented as relative proliferation compared to vehicle control (n=6 per sample).
CD138^+ cells from bone marrow aspirates were enriched using magnetic associated cell sorting at the Hematology Research Core (Mayo Clinic Rochester, USA). Primary myeloma cells were maintained in RPMI supplemented with 10% FBS, antibiotics and 1 ng/mL IL-6.
(3-(4,5-Dimethylthiazol-2-5-Diphenyltetrazolium Bromide (MTT) (ThermoFisher Scientific, MA, USA) was dissolved in PBS to make 12 mM stock solution. Cells were seeded at 10,000 cells in 50 μL complete medium. Drugs, cytokines and antibodies were added at indicated doses in 50 μL complete medium. HMCLs were incubated for 72 hours while primary myeloma cells were incubated for 48 hours in presence of vehicle control, metformin (1 mM, 5 mM, 10 mM, 20 mM, 40 mM and 80 mM). MTT (10 μL) was added to each well and incubated for an additional 2 hours. Lysis buffer (100 μL) was added to each well and absorbance was read at 570 nm. […] IC50 was calculated using Compusyn software.

JJN3 = experiment: MTT assay, metformin in JJN3 myeloma cells; format: cell-based; settings: Homo sapiens, JJN-3, JJN3, 72 hours, Compusyn, read-out: metformin required for 50% cell death/growth inhibition (IC50)
Experimental: (§6) Data is presented as heat map intensity corresponding to the level of expression. (B) HMCLs were treated with different doses of metformin for 72 hours and relative proliferation compared to vehicle control was calculated using MTT assay. Data is presented as IC50 for different cell lines and IC50 was calculated using Compusyn software (n=6). (C) & (D) HMCLs MM1S, RPMI, and U266 were treated with vehicle control (DMSO) or metformin 10 mM for 72 hours. (C) For apoptosis assay, cells were suspended in Annexin V buffer and stained with Annexin V for 30 minutes. Propidium iodide was added 10 minutes prior to data acquisition by flow cytometry. (D) For cell cycle assay, BrdU was added and incubated for 4 hours. Cells were fixed, permeabilized and stained with Anti-BrdU antibody for 30 minutes. 7AAD was added 10 minutes to samples before data acquisition by flow cytometry. The data were acquired on BD Fortessa and analyzed with flowjo V10.
as §3

[6] = tested on: IL-6 induced CRP production from hepatocytes (Hep3B); settings: metformin 10 mM pre-treatment 72 hours, IL-6 50 ng/ml, 48 hours
IL-6Rα [7] = experiment: Flow cytometry, cell surface IL-6Rα on primary myeloma cells; format: cell-based, human; settings: metformin 10 mM, 48 hours, n=11
Experimental: as §5, with “Fortessa.” for “Fortessa. Data were analyzed using flowJo vs10.4.2 (Flowjo LLC, USA).”

RPMI [8] = experiment: BrdU cell cycle assay, RPMI; format: cell-based, human; settings: metformin 10 mM, 72 hours, from 53% without metformin
Experimental: as §1, §2

MM1S [9] = experiment: Annexin V / propidium iodide apoptosis assay, MM1S; format: cell-based, human; settings: metformin 10 mM, 72 hours, Annexin V/PI
Experimental: as §1, §2

IL-6Rα [10] = experiment: Flow cytometry, cell surface IL-6Rα in HMCLs; format: cell-based, human; settings: RPMI, ANBL6, U266, MM1S, JJN3; metformin 10 mM, 72 hours
Experimental: as §4
as §5, with “Fortessa.” for “Fortessa. Data were analyzed using flowJo vs10.4.2 (Flowjo LLC, USA).”

KMS12PE = experiment: MTT assay, metformin in KMS12PE myeloma cells; format: cell-based; settings: Homo sapiens, KMS-12-PE, 72 hours, Compusyn, read-out: metformin required to achieve 50% cell death/growth inhibition (IC50)
Experimental: as §6, §3

CD44 = experiment: Flow cytometry, cell surface CD44 in HMCLs; format: cell-based, human; settings: RPMI, ANBL6, U266, MM1S, JJN3; metformin 10 mM, 72 hours
Experimental: as §4
as §5, with “Fortessa.” for “Fortessa. Data were analyzed using flowJo vs10.4.2 (Flowjo LLC, USA).”

RPMI [11] = experiment: Annexin V / propidium iodide apoptosis assay, RPMI; format: cell-based, human; settings: metformin 10 mM, 72 hours, Annexin V/PI
Experimental: as §1, §2

ALMC1 and ALMC2 = experiment: MTT assay in primary amyloidosis (AL) cell lines; format: cell-based; settings: ALMC2 high, ALMC1 low IL-6Rα expresser
Experimental: (3-(4,5-Dimethylthiazol-2-5-Diphenyltetrazolium Bromide (MTT) (Thermo Fisher Scientific, MA, USA) was dissolved in PBS to make 12 mM stock solution. Cells were seeded at 10,000 cells in 50 μl complete medium. Drugs, cytokines and antibodies were added at indicated doses in 50 μl complete medium. Cells were incubated for 72 hours for HMCLs and 48 hours for primary myeloma cells in presence of vehicle control, or metformin (1 mM, 5 mM, 10 mM, 20 mM, 40 mM, and 80 mM). MTT (10 μl) was added to each well and incubated for an additional 2 hours. Lysis buffer (100 μl) was added to each well and absorbance was read at 570 nm.

MM1S [12] = experiment: BrdU cell cycle assay, MM1S; format: cell-based, human; settings: metformin 10 mM, 72 hours, from 34% without metformin
Experimental: as §1, §2

RPMI [13] = experiment: MTT assay, metformin in RPMI myeloma cells; format: cell-based; settings: Homo sapiens, 72 hours, Compusyn, read-out: metformin required to achieve 50% cell death/growth inhibition (IC50)
Experimental: as §6, §3

`[H]/N=C(/N)N/C(=N/[H])NCCc1ccccc1` [Phenformin] was tested, and the “Phenformin IC50 versus IL-6Rα expression” value ([1]; MTT IC50 vs flow cytometry) was “strongly negatively correlated”.

`CN(C)C(=N)N=C(N)N` [metformin] was tested, and the “S phase fraction after metformin treatment” value (from here on “S phase fraction”) (U266 [2]) was 20%, the “percentage of live cells after metformin treatment” value (“percentage of live cells” for short) (U266 [3]) was 67% and the “IC50 for metformin in RPMI IL-6Rα knock-downs compared to scramble control” value (RPMI IL-6Rα knock-downs) was “significantly increased”. For the same compound, the “survival/growth of multiple myeloma cells” value ([1]; 72 hours, MTT, variable levels of efficacy) was “inhibited survival/growth”, the “IL-6Rα mRNA level (transcription)” value (IL-6Rα mRNA) was “decreased the level of IL-6Rα transcription” and the “IC50 for metformin in JJN3 over-expressing IL-6Rα compared to wild type JJN3” value [4] was “significantly decreased”. For the same compound, the “IL-6Rα expression on hepatocytes” value (IL-6Rα [5]) was “expression of the receptor decreased”, the “soluble IL-6Rα in media” value (soluble IL-6Rα) was “decrease” and the “survival/proliferation of primary myeloma cells” value (primary myeloma cells) was “decreased survival/proliferation”. For the same compound, the IC50 (JJN3) was greater than 30 mM, the “IL-6 induced CRP production from hepatocytes” value [6] was “significantly inhibited” and the “cell surface expression of IL-6Rα on primary myeloma cells” value (IL-6Rα [7]) was “decreased cell surface expression of IL-6Rα”. For the same compound, the “S phase fraction” value (RPMI [8]) was 29%, the “percentage of live cells” value (MM1S [9]) was 76% and the “cell surface expression of IL-6Rα” value (IL-6Rα [10]) was “significantly and consistently reduced”. The IC50 (KMS12PE) was less than 10 mM, the CD44 expression (CD44) was “no significant change” and the “percentage of live cells” value (RPMI [11]) was 59%. For the same compound, the “Metformin IC50, ALMC2 compared to ALMC1” value (ALMC1 and ALMC2) was “lower for ALMC2 compared to ALMC1”, the “S phase fraction” value (MM1S [12]) was 23% and the IC50 (RPMI [13]) was less than 10 mM.
